Laboratory results from patent EP2518500A1, “In vitro method for determining developmental toxicity of a compound” (priority 2011, dated 2012).
Like-named read-outs stand apart in the source and are kept apart here.

Assays:
zebrafish embryos [1] = conditions: concentration range, three independent runs, evaluated at 72 hpf; previous study [11]; cited from earlier work
vmhc [2] = assay: Microarray gene expression in zebrafish embryos exposed to compound, vmhc; conditions: 24 hpf; embryos exposed at BMCGMS20 (PAA equimolar to MAA and EAA); relative to DMSO-exposed control; negative = downregulation, positive = upregulation
hspb12 [3] = assay: Microarray gene expression in zebrafish embryos exposed to compound, hspb12; conditions: 24 hpf; embryos exposed at BMCGMS20 (PAA equimolar to MAA and EAA); relative to DMSO-exposed control; negative = downregulation, positive = upregulation
cyp26a1 [4] = assay: Microarray gene expression in zebrafish embryos exposed to compound, cyp26a1; conditions: 24 hpf; embryos exposed at BMCGMS20 (PAA equimolar to MAA and EAA); relative to DMSO-exposed control; negative = downregulation, positive = upregulation
si:rp71-39b20.7 [5] = assay: Microarray gene expression in zebrafish embryos exposed to compound, si:rp71-39b20.7; conditions: 24 hpf; embryos exposed at BMCGMS20 (PAA equimolar to MAA and EAA); relative to DMSO-exposed control; negative = downregulation, positive = upregulation
zebrafish embryos [6] = assay: Method of the invention: developmental toxicity from expression of the 4 genes in exposed zebrafish embryos; conditions: for fold ratio (FR) (either up- or downregulated): all 4 genes (cyp26a1, si:rp71-39b20.7, vmhc, hspb12), 24 hpf microarray, compound versus DMSO control
cyp26a1 [7] = conditions: zebrafish (Danio rerio), in vivo, 24 hpf
si:rp71-39b20.7 [8] = conditions: zebrafish (Danio rerio), in vivo, 24 hpf
vmhc [9] = conditions: zebrafish (Danio rerio), in vivo, 24 hpf
hspb12 [10] = conditions: zebrafish (Danio rerio), in vivo, 24 hpf
zebrafish embryos [11] = conditions: zebrafish (Danio rerio), in vivo, 24 hpf

In the case of `O=C(O)COc1ccccc1` [PAA, phenoxyacetic acid], the “effects in the ZET (GMS)” value (zebrafish embryos [1]) is given as “no effects”, the “Fold ratio (FR) vmhc” value (vmhc [2]) is given as -1.102 and the “Fold ratio (FR) hspb12” value (hspb12 [3]) is given as -1.135. For the same compound, the “Fold ratio (FR) cyp26a1” value (cyp26a1 [4]) was -1.009, the “Fold ratio (FR) si:rp71-39b20.7” value (si:rp71-39b20.7 [5]) was -1.098 and the “fold ratio (FR) (either up- or downregulated)” value (zebrafish embryos [6]) was under 1.2. The “developmental toxicity classification in the method according to the invention” value (zebrafish embryos [6]; gene expression in zebrafish embryos, 24 hours after fertilization) was “non-developmentally toxic”.
For `CCOCC(=O)O` [EAA, ethoxyacetic acid], the “Fold ratio (FR) vmhc” value (vmhc [2]) was -4.629, the “Fold ratio (FR) hspb12” value (hspb12 [3]) was -16.913 and the “Fold ratio (FR) cyp26a1” value (cyp26a1 [4]) was 2.648. For the same compound, the “Fold ratio (FR) si:rp71-39b20.7” value (si:rp71-39b20.7 [5]) was -2.183 and the “fold ratio (FR) (either up- or downregulated)” value (zebrafish embryos [6]) was over 1.5.
With `COCC(=O)O` [MAA, methoxyacetic acid] the “Fold ratio (FR) cyp26a1” value (cyp26a1 [7]) was 1.722, the “Fold ratio (FR) si:rp71-39b20.7” value (si:rp71-39b20.7 [8]) was -1.996 and the “Fold ratio (FR) vmhc” value (vmhc [9]) was -2.946. The “Fold ratio (FR) hspb12” value (hspb12 [10]) was -3.449 and the “fold ratio (FR) (either up- or downregulated)” value (zebrafish embryos [11]) was over 1.5.
For `CC(C1CC1)C(O)(Cn1cncn1)c1ccc(Cl)cc1` (stereo not drawn) [CYP, cyproconazole], the “Fold ratio (FR) vmhc” value (vmhc [2]) was -1.759, the “Fold ratio (FR) hspb12” value (hspb12 [3]) was -1.531 and the “Fold ratio (FR) cyp26a1” value (cyp26a1 [4]) was 3.745. For the same compound, the “Fold ratio (FR) si:rp71-39b20.7” value (si:rp71-39b20.7 [5]) was -1.544 and the “fold ratio (FR) (either up- or downregulated)” value (zebrafish embryos [6]) was over 1.5.
With `C[Si](Cn1cncn1)(c1ccc(F)cc1)c1ccc(F)cc1` [FLU, flusilazole] the “Fold ratio (FR) vmhc” value (vmhc [2]) was -1.784, the “Fold ratio (FR) hspb12” value (hspb12 [3]) was -2.182 and the “Fold ratio (FR) cyp26a1” value (cyp26a1 [4]) was 3.452. For the same compound, the “Fold ratio (FR) si:rp71-39b20.7” value (si:rp71-39b20.7 [5]) was -1.514 and the “fold ratio (FR) (either up- or downregulated)” value (zebrafish embryos [6]) was over 1.5.
